# Measurements reported in ChEMBL document CHEMBL3352057, “Novel fluorinated pyrrolo[1,2-a]pyrazine-2,6-dione derivatives: synthesis and anticonvulsant evaluation in animal models of epilepsy” (Bioorg Med Chem, 2014).
# The source made the active and inactive calls. The calls are words filed in the database; no cut-off is given here.
# What was measured:
# [1] = test system: Mus musculus; assay: Anticonvulsant activity in albino CF1 mouse assessed as protection against iv infusion metrazol-induced seizures measured as time to clonus at 24 mg/kg, ip (reference value: 29.4 seconds); format: functional
# [2] = test system: Rattus norvegicus; assay: Neurotoxicity in MES Sprague-Dawley rat model at 30 mg/kg, ip measured after 1 hr; format: toxicity, organism-based; parameters: dose 30 mg/kg, route intraperitoneal; conditions: in vivo
# [3] = test system: Mus musculus; assay: Neurotoxicity in 32 mA current-induced seizure albino CF1 mouse model at 100 mg/kg, ip measured after 0.5 hr; format: toxicity, organism-based; parameters: dose 100 mg/kg, route intraperitoneal; conditions: in vivo
# [4] = test system: Rattus norvegicus; assay: Anticonvulsant activity in Sprague-Dawley rat assessed as protection against maximal electroshock-induced seizures at 30 mg/kg, ip measured after 4 hrs; format: functional, organism-based; parameters: dose 30 mg/kg
# [5] = test system: Rattus norvegicus; assay: Anticonvulsant activity in ip dosed hippocampal kindled albino Sprague-Dawley rat seizure model assessed as time of rest; format: functional, Hippocampus
# [6] = test system: Mus musculus; assay: Anticonvulsant activity in albino CF1 mouse assessed as protection against 44 mA current-induced seizures at 100 mg/kg, ip measured after 2 hrs; format: functional, organism-based; parameters: dose 100 mg/kg
# [7] = test system: Mus musculus; assay: Neurotoxicity in 44 mA current-induced seizure albino CF1 mouse model at 100 mg/kg, ip measured after 2 hrs; format: toxicity, organism-based; parameters: dose 100 mg/kg, route intraperitoneal; conditions: in vivo
# [8] = test system: Mus musculus; assay: Anticonvulsant activity in albino CF1 mouse assessed as protection against iv infusion metrazol-induced seizures measured as time to twitch at 24 mg/kg, ip (reference value: 26.6 seconds); format: functional
# [9] = test system: Mus musculus; assay: Anticonvulsant activity in ip dosed albino CF1 mouse assessed as protection against 32 mA current-induced seizures; format: functional
# [10] = test system: Mus musculus; assay: Anticonvulsant activity in albino CF1 mouse assessed as protection against iv infusion metrazol-induced seizures measured as clonus at 24 mg/kg, ip (reference value: 31.1 mg/kg); format: functional
# [11] = test system: Mus musculus; assay: Anticonvulsant activity in albino CF1 mouse assessed as protection against iv infusion metrazol-induced seizures measured as time to clonus at 79 mg/kg, ip (reference value: 29.4 seconds); format: functional
# [12] = test system: Mus musculus; assay: Anticonvulsant activity in ip dosed albino CF1 mouse assessed as protection against maximal electroshock-induced seizures; format: functional
# [13] = test system: Mus musculus; assay: Neurotoxicity in albino CF1 mouse at 100 mg/kg, ip measured after 1 hr; format: toxicity, organism-based; parameters: dose 100 mg/kg, route intraperitoneal; conditions: in vivo
# [14] = test system: Rattus norvegicus; assay: Anticonvulsant activity in ip dosed hippocampal kindled albino Sprague-Dawley rat seizure model; format: functional; conditions: Hippocampus
# [15] = test system: Rattus norvegicus; assay: Neurotoxicity in MES Sprague-Dawley rat model at 30 mg/kg, ip measured after 4 hrs; format: toxicity, organism-based; parameters: dose 30 mg/kg, route intraperitoneal; conditions: in vivo
# [16] = test system: Rattus norvegicus; assay: Anticonvulsant activity in Sprague-Dawley rat assessed as protection against maximal electroshock-induced seizures at 30 mg/kg, ip measured after 0.5 hr; format: functional, organism-based; parameters: dose 30 mg/kg
# [17] = test system: Rattus norvegicus; assay: Neurotoxicity in MES Sprague-Dawley rat model at 30 mg/kg, po measured after 1 hr; format: toxicity, organism-based; parameters: dose 30 mg/kg, route oral; conditions: in vivo
# [18] = test system: Rattus norvegicus; assay: Anticonvulsant activity in Sprague-Dawley rat assessed as protection against maximal electroshock-induced seizures at 30 mg/kg, po measured after 1 hr; format: functional, organism-based; parameters: dose 30 mg/kg
# [19] = test system: Mus musculus; assay: Anticonvulsant activity in ip dosed albino CF1 mouse assessed as protection against 44 mA current-induced seizures; format: functional
# [20] = test system: Rattus norvegicus; assay: Anticonvulsant activity in Sprague-Dawley rat assessed as protection against maximal electroshock-induced seizures at 30 mg/kg, ip measured after 2 hrs; format: functional, organism-based; parameters: dose 30 mg/kg
# [21] = test system: Rattus norvegicus; assay: Neurotoxicity in MES Sprague-Dawley rat model at 30 mg/kg, po measured after 0.5 hr; format: toxicity, organism-based; parameters: dose 30 mg/kg, route oral; conditions: in vivo
# [22] = test system: Mus musculus; assay: Anticonvulsant activity in albino CF1 mouse assessed as protection against maximal electroshock-induced seizures at 100 mg/kg, ip measured after 1 hr; format: functional, organism-based; parameters: dose 100 mg/kg
# [23] = test system: Mus musculus; assay: Neurotoxicity in 44 mA current-induced seizure albino CF1 mouse model at 100 mg/kg, ip measured after 1 hr; format: toxicity, organism-based; parameters: dose 100 mg/kg, route intraperitoneal; conditions: in vivo
# [24] = test system: Mus musculus; assay: Anticonvulsant activity in albino CF1 mouse assessed as protection against maximal electroshock-induced seizures at 100 mg/kg, ip measured after 4 hrs; format: functional, organism-based; parameters: dose 100 mg/kg
# [25] = test system: Mus musculus; assay: Neurotoxicity in 44 mA current-induced seizure albino CF1 mouse model at 100 mg/kg, ip measured after 0.25 hr; format: toxicity, organism-based; parameters: dose 100 mg/kg, route intraperitoneal; conditions: in vivo
# [26] = test system: Mus musculus; assay: Anticonvulsant activity in albino CF1 mouse assessed as protection against 32 mA current-induced seizures at 100 mg/kg, ip measured after 0.25 hr; format: functional, organism-based; parameters: dose 100 mg/kg
# [27] = test system: Mus musculus; assay: Neurotoxicity in albino CF1 mouse at 100 mg/kg, ip measured after 4 hrs; format: toxicity, organism-based; parameters: dose 100 mg/kg, route intraperitoneal; conditions: in vivo
# [28] = test system: Rattus norvegicus; assay: Neurotoxicity in MES Sprague-Dawley rat model at 30 mg/kg, po measured after 4 hrs; format: toxicity, organism-based; parameters: dose 30 mg/kg, route oral; conditions: in vivo
# [29] = test system: Mus musculus; assay: Anticonvulsant activity in albino CF1 mouse assessed as protection against iv infusion metrazol-induced seizures measured as twitch at 79 mg/kg, ip (reference value: 28.2 mg/kg); format: functional
# [30] = test system: Rattus norvegicus; assay: Anticonvulsant activity in Sprague-Dawley rat assessed as protection against maximal electroshock-induced seizures at 30 mg/kg, po measured after 0.25 hr; format: functional, organism-based; parameters: dose 30 mg/kg
# [31] = test system: Mus musculus; assay: Neurotoxicity in 44 mA current-induced seizure albino CF1 mouse model at 100 mg/kg, ip measured after 0.5 hr; format: toxicity, organism-based; parameters: dose 100 mg/kg, route intraperitoneal; conditions: in vivo
# [32] = test system: Rattus norvegicus; assay: Neurotoxicity in MES Sprague-Dawley rat model at 30 mg/kg, ip measured after 0.5 hr; format: toxicity, organism-based; parameters: dose 30 mg/kg, route intraperitoneal; conditions: in vivo
# [33] = test system: Rattus norvegicus; assay: Neurotoxicity in MES Sprague-Dawley rat model at 30 mg/kg, po measured after 2 hrs; format: toxicity, organism-based; parameters: dose 30 mg/kg, route oral; conditions: in vivo
# [34] = test system: Rattus norvegicus; assay: Anticonvulsant activity in ip dosed Sprague-Dawley rat assessed as protection against maximal electroshock-induced seizures measured as time to peak effect; format: functional
# [35] = test system: Mus musculus; assay: Anticonvulsant activity in albino CF1 mouse assessed as protection against 32 mA current-induced seizures at 100 mg/kg, ip measured after 0.5 hr; format: functional, organism-based; parameters: dose 100 mg/kg
# [36] = test system: Mus musculus; assay: Anticonvulsant activity in ip dosed corneal kindled albino CF1 mouse seizure model; format: functional
# [37] = test system: Mus musculus; assay: Anticonvulsant activity in albino CF1 mouse assessed as protection against iv infusion metrazol-induced seizures measured as twitch at 24 mg/kg, ip (reference value: 28.2 mg/kg); format: functional
# [38] = test system: Rattus norvegicus; assay: Anticonvulsant activity in Sprague-Dawley rat assessed as protection against maximal electroshock-induced seizures at 30 mg/kg, po measured after 2 hrs; format: functional, organism-based; parameters: dose 30 mg/kg
# [39] = test system: Mus musculus; assay: Anticonvulsant activity in ip dosed albino CF1 mouse assessed as protection against iv infusion metrazol-induced seizures; format: functional, organism-based
# [40] = test system: Mus musculus; assay: Anticonvulsant activity in albino CF1 mouse assessed as protection against 44 mA current-induced seizures at 100 mg/kg, ip measured after 4 hrs; format: functional, organism-based; parameters: dose 100 mg/kg
# [41] = test system: Mus musculus; assay: Neurotoxicity in 32 mA current-induced seizure albino CF1 mouse model at 100 mg/kg, ip measured after 1 hr; format: toxicity, organism-based; parameters: dose 100 mg/kg, route intraperitoneal; conditions: in vivo
# [42] = test system: Mus musculus; assay: Anticonvulsant activity in albino CF1 mouse assessed as protection against iv infusion metrazol-induced seizures measured as time to twitch at 79 mg/kg, ip (reference value: 26.6 seconds); format: functional
# [43] = test system: Rattus norvegicus; assay: Anticonvulsant activity in Sprague-Dawley rat assessed as protection against maximal electroshock-induced seizures at 30 mg/kg, ip measured after 0.25 hr; format: functional, organism-based; parameters: dose 30 mg/kg
# [44] = test system: Mus musculus; assay: Neurotoxicity in 32 mA current-induced seizure albino CF1 mouse model at 100 mg/kg, ip measured after 4 hrs; format: toxicity, organism-based; parameters: dose 100 mg/kg, route intraperitoneal; conditions: in vivo
# [45] = Protective index, ratio of TD50 for neurotoxicity in ip dosed Sprague-Dawley rat to ED50 for anticonvulsant activity in ip dosed MES Sprague-Dawley rat model; format: toxicity, organism-based; conditions: in vivo, read-out: Ratio TD50/ED50
# [46] = Neurotoxicity in ip dosed albino CF1 mouse; format: toxicity, organism-based; conditions: in vivo
smiles,measurement,setting,value
O=C1NC(=O)[C@@H]2CCCN2[C@H]1c1cccc(OC(F)(F)F)c1,Time,[1],39.4 s
same,Activity,[2],Non-toxic
same,Activity,[3],Non-toxic
same,Activity,[4],inactive
same,Time,[5],0.25 h
same,Activity,[6],inactive
same,Activity,[7],Non-toxic
same,Time,[8],33.3 s
same,ED50,[9],176 µmol/kg
same,Activity,[10],41.7 mg/kg
same,Time,[11],94.6 s
same,ED50,[12],76 µmol/kg
same,Activity,[13],Non-toxic
same,ED50,[14],48 µmol/kg
same,Activity,[15],Non-toxic
same,Activity,[16],Active
same,Activity,[17],Non-toxic
same,Activity,[18],inactive
same,ED50,[19],171 µmol/kg
same,Activity,[20],inactive
same,Activity,[21],Non-toxic
same,Activity,[22],Active
same,Activity,[23],Non-toxic
same,Activity,[24],inactive
same,Activity,[25],Toxic
same,Activity,[26],Active
same,Activity,[27],Non-toxic
same,Activity,[28],Non-toxic
same,Activity,[29],64.8 mg/kg
same,Activity,[30],inactive
same,Activity,[31],Toxic
same,Activity,[32],Non-toxic
same,Activity,[33],Non-toxic
same,Time,[34],0.25 h
same,Activity,[35],Active
same,ED50,[36],171 µmol/kg
same,Activity,[37],35.2 mg/kg
same,Activity,[38],inactive
same,Activity,[39],Dose-dependent effect
same,Activity,[40],inactive
same,Activity,[41],Non-toxic
same,Time,[42],63.1 s
same,Activity,[43],Active
same,Activity,[44],Non-toxic
same,selectivity ratio,[45],2.8
same,TD50,[46],252 µmol/kg
